From patent publication US11925611B2, “Use of ZT-1A and analogs thereof to prevent and/or treat neurodegenerative and neurocognitive disorders” (United States Government as Represented by the Department …, priority 2021, dated 2024)
Read-outs that look alike come from different tables or passages of the source.

Tests used:
BCAS mice = test: Ex-vivo MRI DTI analysis of white matter lesion in BCAS mice; set-up: species or system C57BL/6J mice; details: 4 wks post-BCAS, vs Veh-control
Description: Clinically, most patients with intracranial atherosclerotic stenosis suffer from permanent stenosis without occlusion. Therefore, to mimic clinical atherosclerotic stenosis with permanent carotid artery (CCA) hypoperfusion, a modified BCAS model was adapted by ligating the CCA guided with a 30 gauge needle (0.31 mm diameter) in the right CCA and a 33 gauge needle (0.21 mm diameter) in the left CCA with a 4-0 silk suture. […] Next, changes of total NKCC1 (tNKCC1) protein expression were surveyed in different brain regions at 2 and 4 wks post-surgery by immunofluorescence staining (IF). […] Therefore, in the rest of the study, the investigation was focused on its association to white matter GFAP^+ astrogliosis and lesion of CC and external capsul (EC) tracks. […] However, by 2 wks post-BCAS surgery, tNKCC1 immunofluorescence intensity in the CC tracks was increased by ˜3 folds (p<0.05), and further elevated to ˜6 folds by 4 wks (p<0.05, arrowhead). Data are mean±SEM, n=4, *p<0.05, **p<0.01. […] The upregulation of tNKCC1 and GFAP protein expression in the CC is correlated, with a Pearson's correlation coefficient of r=0.9 (p<0.001). […] In contrast, no elevated tNKCC1 protein was detected either in Iba1^+ microglia/macrophages or in Olig2+ oligodendrocytes (OL) at 4 wks post-BCAS surgery (FIG. 1D). Without wishing to be bound by theory, these findings indicate that upregulation of NKCC1 expression and activity in reactive astrocytes may play a critical role in white matter inflammation, OL death, and demyelination after BCAS. Next, whether administration of SPAK inhibitor ZT-1a reduces WML and improves cognitive functions was examined. Starting at 14 days after BCAS surgery in mice (male), either vehicle DMSO (Veh, 2 ml/kg) or ZT-1a (5 mg/kg, every 72 h, i.p) was administered every 3 days, until they were sacrificed at day 35 post-BCAS (FIG. 3A). […] Motor functions are similar in all groups and average swimming speeds were not different in the Sham-, Veh- and ZT-1a-treated mice. Data are mean±SEM, n=6 (Sham and ZT-1a) or 5 (Veh), *p<0.01 vs. sham, *p<0.05 vs. Veh. After completion of the neurological function tests in the Veh-control and ZT-1a-treated BCAS cohort mice (as shown in FIG. 3A and FIG. 3B), ex-vivo brains were harvested for MRI DTI (diffusion tensor imaging) analysis of WML at 4 wks post-BCAS detected by DTI. The fractional anisotropy (FA), radial diffusivity (RD), and mean diffusivity (MD) of the CC and EC tracks were analyzed. Representative images of the DEC maps in FIG. 4A show severe loss of axonal fibers (arrowheads) in the CC and left EC of the Veh-control brains. […] These observations are consistent with changes of FA, RD, and MD values (FIG. 4B). […] Then MBP expression levels were measured in these brains by immunostaining. […]

SPAK = SPAK (Homo sapiens, UniProt Q9UEW8); test: Cellular inhibition of SPAK phosphorylation (pSer373); assay type: cell-based; details: 50% inhibition of phosphorylation, n = 3, — = no inhibition
Description: 8. Cellular Activity Profile of Inhibitors with the Salicyclic Amide
A list of the compounds evaluated for their ability to inhibit phosphorylation of SPAK/NKCC1/KCC3 activity is illustrated in Table 1 below.

- IC50 (SPAK; Hypotonic conditions, read-out: SPAK pSer373 (μM) hypo): 3 µM
- IC50 (SPAK; Isotonic conditions, read-out: SPAK pSer373 (μM) Iso): 1 µM
Compound: Cc1cc(C(C#N)c2ccc(Cl)cc2)c(Cl)cc1NC(=O)c1cc(Cl)ccc1O (stereo not drawn) [1a (ZT-1a)]
- integrity of the CC and EC tracks (DEC maps) (BCAS mice; 5 mg/kg i.p. every 72 h, both hemispheres): better-preserved integrity
- fractional anisotropy (FA) values (BCAS mice; p<0.05): significantly higher
- mean diffusivity (MD) values (BCAS mice; p<0.05): lower
- radial diffusivity (RD) values (BCAS mice; p<0.05): lower
